Source: PubChem BioAssay AID330 (DTP/NCI, 2004)
“And” between values parts separate entries of the source, which are not always exact repeats. Equal entries are not always repeated. Toxic doses and inconclusive results are not listed.

System: P388 leukemia ip, CD2F1 mice, survival T/C
Experiment: NCI In Vivo Anticancer Drug Screen. Data for tumor model P388 Leukemia (intraperitoneal) in CD2F1 (CDF1) mice
Conditions: endpoint: median survival time, higher = longer survival
Summary of the method: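 Mice carrying the transplanted tumor received test compound or vehicle. Survival was recorded in each group, and the value is the treated-group measurement divided by that of the vehicle-treated control group.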

[1] = dose: 50.0 mg/kg/injection, schedule: Q01DX005 (ip), vehicle: saline
[2] = dose: 100.0 mg/kg/injection, schedule: Q01DX005 (ip), vehicle: saline
[3] = dose: 100.0 mg/kg/injection, schedule: Q04DX002 (ip), vehicle: saline with Tween-80
[4] = dose: 100.0 mg/kg/injection, schedule: Q04DX003 (ip), vehicle: saline with Tween-80
[5] = dose: 200.0 mg/kg/injection, schedule: Q04DX003 (ip), vehicle: saline with Tween-80
[6] = dose: 50.0 mg/kg/injection, schedule: Q01DX009 (ip), vehicle: saline
[7] = dose: 50.0 mg/kg/injection, schedule: Q01DX005 (ip), vehicle: saline with Tween-80
[8] = dose: 100.0 mg/kg/injection, schedule: Q01DX005 (ip), vehicle: saline with Tween-80
[9] = dose: 200.0 mg/kg/injection, schedule: Q01DX005 (ip), vehicle: saline with Tween-80
[10] = dose: 5.0 mg/kg/injection, schedule: Q01DX009 (ip), vehicle: water
[11] = dose: 50.0 mg/kg/injection, schedule: Q01DX005 (ip), vehicle: Klucel (hydroxypropylcellulose) (HPC)

Structure (SMILES): CN(C)CCN1C(=O)C2C3CCC(C)(O3)C2C1=O (centres undefined)
- T/C [1]: 99 % of control
- T/C [2]: 104 % of control
- T/C (dose: 200.0 mg/kg/injection, schedule: Q01DX005 (ip), vehicle: saline): 103 % of control

Structure (SMILES): CSC(/C=C1\C=CC=CN1Cc1ccccc1)=NC#N
- T/C (dose: 25.0 mg/kg/injection, schedule: Q04DX002 (ip), vehicle: saline with Tween-80): 100 % of control
- T/C (dose: 50.0 mg/kg/injection, schedule: Q04DX002 (ip), vehicle: saline with Tween-80): 92 % of control
- T/C [3]: 99 % of control

Structure (SMILES): Cc1ccc(S(=O)(=O)Nc2ccc3ncccc3c2)cc1
- T/C [4]: 99 % of control
- T/C [5]: 98 % of control

Structure (SMILES): NCCSCCN
- T/C [6]: 100 % of control
- T/C (dose: 100.0 mg/kg/injection, schedule: Q01DX009 (ip), vehicle: saline): 99 % of control
- T/C (dose: 100.0 mg/kg/injection, schedule: Q03DX003 (ip), vehicle: saline): 102 % of control
- T/C (dose: 200.0 mg/kg/injection, schedule: Q01DX009 (ip), vehicle: saline): 105 % of control
- T/C (dose: 200.0 mg/kg/injection, schedule: Q03DX003 (ip), vehicle: saline): 105 % of control
- T/C (dose: 400.0 mg/kg/injection, schedule: Q03DX003 (ip), vehicle: saline): 92 % of control

Structure (SMILES): NC(N)=NC(N)=Nc1ccc([As](=O)(O)O)c(O)c1
- T/C (dose: 22.5 mg/kg/injection, schedule: Q01DX009 (ip), vehicle: saline): 105 % of control
- T/C (dose: 25.0 mg/kg/injection, schedule: Q01DX009 (ip), vehicle: saline sonified): 118 % of control
- T/C (dose: 33.0 mg/kg/injection, schedule: Q01DX009 (ip), vehicle: saline): 104 % of control
- T/C (dose: 45.0 mg/kg/injection, schedule: Q01DX009 (ip), vehicle: saline): 104 % of control
- T/C (dose: 50.0 mg/kg/injection, schedule: Q01DX009 (ip), vehicle: saline sonified): 118 % of control
- T/C [6]: 109 % of control
- T/C (dose: 75.0 mg/kg/injection, schedule: Q01DX009 (ip), vehicle: saline): 122 % of control
- T/C (dose: 90.0 mg/kg/injection, schedule: Q01DX009 (ip), vehicle: saline): 115 % of control
- T/C (dose: 180.0 mg/kg/injection, schedule: Q01DX009 (ip), vehicle: saline): 117 % of control
- T/C (dose: 360.0 mg/kg/injection, schedule: Q01DX009 (ip), vehicle: saline): 103 % of control

Structure (SMILES): O=c1[nH]c2ccc(Cl)cc2[nH]c1=O
- T/C [7]: 99 % of control
- T/C [8]: 100 % of control
- T/C [9]: 94 % of control

Structure (SMILES): CCN(CC)CCCC(C)NC(=O)Cc1cc(O)c2c(c1O)C(=O)c1ccccc1C2=O (centres undefined)
- T/C (dose: 2.5 mg/kg/injection, schedule: Q01DX009 (ip), vehicle: water): 108 % of control and 112 % of control
- T/C [10]: 102 % of control and 110 % of control
- T/C (dose: 10.0 mg/kg/injection, schedule: Q01DX009 (ip), vehicle: water): 99 % of control and 103 % of control and 97 % of control
- T/C (dose: 20.0 mg/kg/injection, schedule: Q01DX009 (ip), vehicle: water): 99 % of control and 110 % of control and 93 % of control
- T/C (dose: 40.0 mg/kg/injection, schedule: Q01DX009 (ip), vehicle: water): 102 % of control and 113 % of control
- T/C (dose: 80.0 mg/kg/injection, schedule: Q01DX009 (ip), vehicle: water): 108 % of control

Structure (SMILES): COC(=O)C1(C)C(=O)C=CC2(C)C1CC(OC(C)=O)C1(C)C2C(=O)C(OC(C)=O)C2(C)C(c3ccoc3)CC3OC321 (centres undefined)
- T/C (dose: 0.75 mg/kg/injection, schedule: Q01DX005 (ip), vehicle: Klucel (hydroxypropylcellulose) (HPC)): 99 % of control
- T/C (dose: 1.5 mg/kg/injection, schedule: Q01DX005 (ip), vehicle: Klucel (hydroxypropylcellulose) (HPC)): 101 % of control
- T/C (dose: 3.0 mg/kg/injection, schedule: Q01DX005 (ip), vehicle: Klucel (hydroxypropylcellulose) (HPC)): 97 % of control
- T/C (dose: 6.0 mg/kg/injection, schedule: Q01DX005 (ip), vehicle: Klucel (hydroxypropylcellulose) (HPC)): 97 % of control
- T/C (dose: 12.0 mg/kg/injection, schedule: Q01DX005 (ip), vehicle: Klucel (hydroxypropylcellulose) (HPC)): 98 % of control

Structure (SMILES): CCCCS(=O)CC(CO)NC(=O)/C=C/c1c(C)[nH]c(=O)[nH]c1=O (centres undefined)
- T/C (dose: 0.08 mg/kg/injection, schedule: Q01DX009 (ip), vehicle: Klucel (hydroxypropylcellulose) (HPC)): 89 % of control
- T/C (dose: 0.15 mg/kg/injection, schedule: Q01DX009 (ip), vehicle: Klucel (hydroxypropylcellulose) (HPC)): 86 % of control
- T/C (dose: 0.3 mg/kg/injection, schedule: Q01DX009 (ip), vehicle: Klucel (hydroxypropylcellulose) (HPC)): 103 % of control
- T/C (dose: 0.6 mg/kg/injection, schedule: Q01DX009 (ip), vehicle: Klucel (hydroxypropylcellulose) (HPC)): 112 % of control
- T/C (dose: 0.6 mg/kg/injection, schedule: Q01DX009 (ip), vehicle: water): 122 % of control
- T/C (dose: 4.8 mg/kg/injection, schedule: Q01DX009 (ip), vehicle: water): 153 % of control
- T/C [10]: 161 % of control

Structure (SMILES): CCC(=O)c1ccc(OC(C)=O)cc1
- T/C (dose: 50.0 mg/kg/injection, schedule: Q04DX003 (ip), vehicle: saline with Tween-80): 103 % of control
- T/C [4]: 103 % of control
- T/C [5]: 96 % of control

Structure (SMILES): CCOC(=O)CCC(NC(=O)c1ccc(NCc2cnc3nc(N)nc(N)c3c2)cc1)C(=O)OCC (centres undefined)
- T/C (dose: 0.25 mg/kg/injection, schedule: Q01DX005 (ip), vehicle: saline with Tween-80): 162 % of control
- T/C (dose: 0.5 mg/kg/injection, schedule: Q01DX005 (ip), vehicle: saline with Tween-80): 158 % of control and 183 % of control
- T/C (dose: 1.0 mg/kg/injection, schedule: Q01DX005 (ip), vehicle: saline with Tween-80): 183 % of control and 218 % of control
- T/C (dose: 2.0 mg/kg/injection, schedule: Q01DX005 (ip), vehicle: saline with Tween-80): 104 % of control
- T/C (dose: 125.0 micrograms/kg/injection, schedule: Q01DX005 (ip), vehicle: saline with Tween-80): 114 % of control
- T/C (dose: 1000.0 micrograms/kg/injection, schedule: Q01DX005 (ip), vehicle: saline with Tween-80): 151 % of control

Structure (SMILES): CCCCCCCCCCCC(=O)c1c(O)cc(C)oc1=O
- T/C (dose: 60.0 mg/kg/injection, schedule: Q01DX005 (ip), vehicle: Klucel (hydroxypropylcellulose) (HPC)): 100 % of control
- T/C (dose: 120.0 mg/kg/injection, schedule: Q01DX005 (ip), vehicle: Klucel (hydroxypropylcellulose) (HPC)): 98 % of control
- T/C (dose: 240.0 mg/kg/injection, schedule: Q01DX005 (ip), vehicle: Klucel (hydroxypropylcellulose) (HPC)): 105 % of control

Structure (SMILES): CC(=O)c1ccc(Cl)c(-n2cccc2)c1
- T/C [11]: 95 % of control
- T/C (dose: 100.0 mg/kg/injection, schedule: Q01DX005 (ip), vehicle: Klucel (hydroxypropylcellulose) (HPC)): 101 % of control

Structure (SMILES): CCC1OC(OC)C=CC1=O (centres undefined)
- T/C (dose: 12.5 mg/kg/injection, schedule: Q01DX005 (ip), vehicle: Klucel (hydroxypropylcellulose) (HPC)): 113 % of control
- T/C (dose: 12.5 mg/kg/injection, schedule: Q01DX005 (ip), vehicle: saline): 101 % of control
- T/C (dose: 25.0 mg/kg/injection, schedule: Q01DX005 (ip), vehicle: Klucel (hydroxypropylcellulose) (HPC)): 114 % of control
- T/C (dose: 25.0 mg/kg/injection, schedule: Q01DX005 (ip), vehicle: saline): 108 % of control
- T/C [11]: 124 % of control
- T/C [1]: 98 % of control
- T/C [2]: 104 % of control

Structure (SMILES): COc1ccc2c3c1OC1c4[nH]ncc4C[C@H]4[C@@H](C2)N(C)CC[C@]314 (some centres undefined)
- T/C [3]: 108 % of control
- T/C (dose: 200.0 mg/kg/injection, schedule: Q04DX002 (ip), vehicle: saline with Tween-80): 99 % of control

Structure (SMILES): CN1C(=NCCO)NS(=O)(=O)c2ccccc21
- T/C [7]: 98 % of control
- T/C [8]: 100 % of control
- T/C [9]: 104 % of control

Structure (SMILES): CC12CC(=O)NC(=O)N1CCS2 (centres undefined)
- T/C (dose: 50.0 mg/kg/injection, schedule: Q01DX009 (ip), vehicle: Klucel (hydroxypropylcellulose) (HPC)): 106 % of control
- T/C (dose: 100.0 mg/kg/injection, schedule: Q01DX009 (ip), vehicle: Klucel (hydroxypropylcellulose) (HPC)): 100 % of control
- T/C (dose: 200.0 mg/kg/injection, schedule: Q01DX009 (ip), vehicle: Klucel (hydroxypropylcellulose) (HPC)): 92 % of control

Structure (SMILES): c1ccc2c(NCCCN3CCN(CCCNc4c5ccccc5nc5ccccc45)CC3)c3ccccc3nc2c1
- T/C (dose: 0.93 mg/kg/injection, schedule: Q01DX005 (ip), vehicle: Klucel (hydroxypropylcellulose) (HPC)): 110 % of control
- T/C (dose: 1.88 mg/kg/injection, schedule: Q01DX005 (ip), vehicle: Klucel (hydroxypropylcellulose) (HPC)): 104 % of control

Structure (SMILES): N#CC1(Nc2ccccc2)CCCCC1
- T/C (dose: 6.25 mg/kg/injection, schedule: Q01DX009 (ip), vehicle: saline with Tween-80): 90 % of control
- T/C (dose: 12.5 mg/kg/injection, schedule: Q01DX009 (ip), vehicle: saline with Tween-80): 95 % of control
- T/C (dose: 25.0 mg/kg/injection, schedule: Q01DX009 (ip), vehicle: saline with Tween-80): 90 % of control
